In patent US20250084058A1, “PHENYLPYRAZOLE COMPOUND AND APPLICATION THEREOF” (priority 2022, published 2025):
Where two headings read alike, the source gives them in different places.

Columns and labels:
Format in all cases: in vivo
[1] = system: Ctenocephalides felis; experiment: Insecticidal test on Ctenocephalides felis (compound film in culture dish); settings: 1 μg/cm^2; adult Ctenocephalides felis; after 72 h; 25° C.; read-out: insect mortality (Ctenocephalides felis)
Description: 4 mg of compounds to be tested were dissolved in 40 mL of acetone to obtain acetone solutions with a concentration of 100 mg/L. Bottom surfaces and side surfaces of culture dishes with an inner diameter of 5.3 cm were coated with 400 μL of the drug solutions, and when the acetone was volatilized, films of the compounds of the present disclosure were prepared on inner walls of the culture dishes. The inner walls of the culture dishes used were 40 cm^2, and a dose of the treatment drugs was 1 μg/cm^2. 10 adult Ctenocephalides felis (males and females were mixed) were placed in the culture dishes, and the culture dishes were covered and then stored in a constant-temperature room at 25° C. The number of dead insects was checked after 72 h, and the insect mortality was calculated. The test was repeated for 3 times. Test results: The insect mortality of compounds 1, 2, 3, 4, 5, 11, 12, 18, 32, 33, 34, 46, 60, 74, 88, 99, 101, 102, 104, 105, 108, 109, 110, 111, 113 and 114 is 70% or above.

[2] = system: Mythimna separata; experiment: Activity determination of killing Mythimna separata (Airbrush spray, corn leaf segments); settings: foliar, dose 1.25 mg/L, 3rd instar larvae, 3rd day after administration, read-out: mortality against Mythimna separata
Description: (§1) The compounds to be tested were dissolved in a mixed solvent of acetone/methanol (1:1) and then diluted to desired concentrations with water containing 0.1% (wt) Tween 80.
(§2) With Mythimna separata and Plutella xylostella as targets, the activity was determined by Airbrush spray method.
Determination method: Corn leaves were cut into leaf segments with the length of 2 cm, the pressure of Airbrush spray treatment is 10 psi (about 0.7 kg/cm^2), and the compounds to be tested were sprayed onto the front and back surfaces of each leaf segment at a liquid amount of 0.5 mL. After drying in the shade, 10 3rd instar larvae were inoculated to each treatment, and each treatment was repeated for 3 times. After the treatment, the larvae were placed in an observation room for culture at 25° C. with relative humidity of 60-70%. On the 3rd day after administration, the number of surviving larvae was investigated, and the mortality was calculated.

[3] = system: Tetranychus cinnabarinus; experiment: Greenhouse acaricidal activity on adult acarids of Tetranychus cinnabarinus (spraying of Phaseolus vulgaris seedlings); settings: dose 1.25 mg/L, after 72 h, read-out: mortality against adult acarids of Tetranychus cinnabarinus
Description: According to the solubility of the compounds to be tested, the compounds to be tested were dissolved in acetone or dimethyl sulfoxide and prepared into 50 mL of solutions to be tested at desired concentrations with a 0.1% Tween 80 solution, where the content of the acetone or dimethyl sulfoxide in the solutions was not higher than 10%.
Two true leaves of Phaseolus vulgaris seedlings were taken, and 30-40 adult acarids of Tetranychus cinnabarinus were inoculated. After the cardinal number was investigated, the whole plants were subjected to spraying treatment with a hand-held sprayer, each treatment was repeated for 3 times, and the plants were placed in a standard observation room after the treatment. The number of surviving acarids was investigated after 72 h, and the mortality was calculated.

[4] = system: Dermacentor variabilis; experiment: Insecticidal test on Dermacentor variabilis (compound film in culture dish); settings: 1 μg/cm^2, 1st nymphs, after 24 h, 25° C., read-out: insect mortality (Dermacentor variabilis)
Description: 4 mg of compounds to be tested were dissolved in 40 mL of acetone to obtain acetone solutions with a concentration of 100 mg/L. Bottom surfaces and side surfaces of 2 culture dishes with an inner diameter of 5.3 cm were coated with 400 μL of the drug solutions, and when the acetone was volatilized, films of the compounds of the present disclosure were prepared on inner walls of the culture dishes. The inner walls of the culture dishes used were 40 cm^2, and a dose of the treatment drugs was 1 μg/cm^2. 10 1st nymphs of Dermacentor variabilis (males and females were mixed) were placed in the culture dishes. The 2 culture dishes were combined, sealed with tape at a junction portion to prevent escape of the nymphs, and then stored in a constant-temperature room at 25° C. The number of dead insects was checked after 24 h, and the insect mortality was calculated. The test was repeated for 3 times. Test results: The insect mortality of compounds 1, 2, 3, 4, 5, 11, 12, 18, 32, 33, 34, 46, 60, 74, 88, 99, 101, 102, 104, 105, 108, 109, 110, 111, 113 and 114 is 70% or above.

[5] = system: Plutella xylostella; experiment: Activity determination of killing Plutella xylostella (Airbrush spray, cabbage leaf discs); settings: foliar; for mortality at 0.3125 µg/mL: read-out: Mortality (%, on 3rd day after administration) 0.3125 mg/L; for mortality at 0.625 µg/mL: read-out: Mortality (%, on 3rd day after administration) 0.625 mg/L
Description: as §1, §2
Determination method: Cabbage leaves were punched into leaf discs with the diameter of 2 cm by a puncher, the pressure of Airbrush spray treatment is 10 psi (about 0.7 kg/cm^2), and the compounds to be tested were sprayed onto the front and back surfaces of each leaf disc at a liquid amount of 0.5 mL. After drying in the shade, 10 3rd instar larvae were inoculated to each treatment, and each treatment was repeated for 3 times. After the treatment, the larvae were placed in an observation room for culture at 25° C. with relative humidity of 60-70%. On 3rd day after administration, the number of surviving larvae was investigated, and the mortality was calculated.
Some compounds of the present disclosure and control compounds were selected to carry out parallel comparative experiments of the insecticidal activity against Plutella xylostella (on 3rd day after administration), and the determination method was the same as above.

[6] = dose 1.25 mg/L, 3rd instar larvae, 3rd day after administration, read-out: mortality against Plutella xylostella
[7] = read-out: Mortality (%, on 3rd day after administration) 1.25 mg/L
[8] = 0.3125 mg/L, parallel comparative experiment, 3rd day after administration
[9] = 0.625 mg/L, parallel comparative experiment, 3rd day after administration
[10] = 1.25 mg/L, parallel comparative experiment, 3rd day after administration, read-out: Mortality (%, on 3rd day after administration) 1.25 mg/L

| Structure (SMILES) | mortality at 1 µg/cm2 [1] | mortality at 1.25 µg/mL [2] | mortality at 1.25 µg/mL [3] | mortality at 1 µg/cm2 [4] | mortality at 1.25 µg/mL [5, 6] | mortality at 0.3125 µg/mL [5] | mortality at 0.625 µg/mL [5] | mortality at 1.25 µg/mL [5, 7] | mortality at 0.3125 µg/mL [5, 8] | mortality at 0.625 µg/mL [5, 9] | mortality at 1.25 µg/mL [5, 10] |
| --- | --- | --- | --- | --- | --- | --- | --- | --- | --- | --- | --- |
| N#CCCN(C(=O)c1cc(-c2cnn(-c3c(Cl)cc(C(F)(C(F)(F)F)C(F)(F)F)cc3Br)c2)cnc1Cl)C1CC1 [Compound 33] | ≥ 70% | ≥ 90% | ≥ 90% | ≥ 70% | ≥ 90% |  |  |  |  |  |  |
| N#CCN(C(=O)c1cc(-c2cnn(-c3c(Br)cc(C(F)(C(F)(F)F)C(F)(F)F)cc3OC(F)(F)F)c2)cnc1Cl)C1CC1 [Compound 74] | ≥ 70% | ≥ 90% | ≥ 90% | ≥ 70% | ≥ 90% |  |  |  |  |  |  |
| N#CCCCN(C(=O)c1cc(-c2cnn(-c3c(Cl)cc(C(F)(C(F)(F)F)C(F)(F)F)cc3Br)c2)cnc1Cl)C1CC1 [Compound 34] | ≥ 70% | ≥ 90% | ≥ 90% | ≥ 70% | ≥ 90% |  |  |  |  |  |  |
| CN(C(=O)c1cc(-c2cnn(-c3c(Cl)cc(C(F)(C(F)(F)F)C(F)(F)F)cc3Cl)c2)cnc1Cl)C1CC1 [CK2, reference compound] |  |  |  |  |  | 13.3% | 60% | 93.3% |  |  |  |
| N#CCN(C(=O)c1cc(-c2cnn(-c3c(Cl)cc(C(F)(C(F)(F)F)C(F)(F)F)cc3Cl)c2)cnc1Cl)C1CC1 [Compound 4] | ≥ 70% | ≥ 90% | ≥ 90% | ≥ 70% | ≥ 90% |  |  |  | 100% | 100% | 100% |
| CC(=O)N(C(=O)c1cc(-c2cnn(-c3c(Cl)cc(C(F)(C(F)(F)F)C(F)(F)F)cc3Cl)c2)cnc1Cl)C1CC1 [Compound 99] | ≥ 70% | ≥ 90% | ≥ 90% | ≥ 70% | ≥ 90% |  |  |  | 100% | 100% | 100% |
| O=C(c1cc(-c2cnn(-c3c(Cl)cc(C(F)(C(F)(F)F)C(F)(F)F)cc3Cl)c2)cnc1Cl)N(CC1CC1)C1CC1 [Compound 3] | ≥ 70% | ≥ 90% | ≥ 90% | ≥ 70% | ≥ 90% |  |  |  | 76.7% | 100% | 100% |
| N#CCN(C(=O)c1cc(-c2cnn(-c3c(Cl)cc(C(F)(C(F)(F)F)C(F)(F)F)cc3OC(F)(F)F)c2)cnc1Cl)C1CC1 [Compound 88] | ≥ 70% | ≥ 90% | ≥ 90% | ≥ 70% | ≥ 90% |  |  |  |  |  |  |
| CC(=O)N(C(=O)c1cc(-c2cnn(-c3c(Cl)cc(C(F)(C(F)(F)F)C(F)(F)F)cc3Cl)c2)cnc1Cl)C1(C#N)CC1 [Compound 108] | ≥ 70% | ≥ 90% | ≥ 90% | ≥ 70% | ≥ 90% |  |  |  | 100% | 100% | 100% |
| N#CCN(C(=O)c1cc(-c2cnn(-c3c(Cl)cc(C(F)(C(F)(F)F)C(F)(F)F)cc3C(F)(F)F)c2)cnc1Cl)C1CC1 [Compound 60] | ≥ 70% | ≥ 90% | ≥ 90% | ≥ 70% | ≥ 90% |  |  |  |  |  |  |
| CC(C)C(=O)N(C(=O)c1cc(-c2cnn(-c3c(Cl)cc(C(F)(C(F)(F)F)C(F)(F)F)cc3Cl)c2)cnc1Cl)C1(C#N)CC1 [Compound 111] | ≥ 70% | ≥ 90% | ≥ 90% | ≥ 70% | ≥ 90% |  |  |  |  |  |  |
| CC(C)C(=O)N(C(=O)c1cc(-c2cnn(-c3c(Cl)cc(C(F)(C(F)(F)F)C(F)(F)F)cc3Cl)c2)cnc1Cl)C1CC1 [Compound 102] | ≥ 70% | ≥ 90% | ≥ 90% | ≥ 70% | ≥ 90% |  |  |  |  |  |  |
| CCCC(=O)N(C(=O)c1cc(-c2cnn(-c3c(Cl)cc(C(F)(C(F)(F)F)C(F)(F)F)cc3Cl)c2)cnc1Cl)C1CC1 [Compound 101] | ≥ 70% | ≥ 90% | ≥ 90% | ≥ 70% | ≥ 90% |  |  |  |  |  |  |
| N#CCN(C(=O)c1cc(-c2cnn(-c3c(Cl)cc(C(F)(C(F)(F)F)C(F)(F)F)cc3Cl)c2)cnc1Cl)C1(C#N)CC1 [Compound 11] | ≥ 70% | ≥ 90% | ≥ 90% | ≥ 70% | ≥ 90% |  |  |  | 100% | 100% | 100% |
| N#CCN(C(=O)c1cc(-c2cnn(-c3c(Br)cc(C(F)(C(F)(F)F)C(F)(F)F)cc3C(F)(F)F)c2)cnc1Cl)C1CC1 [Compound 46] | ≥ 70% | ≥ 90% | ≥ 90% | ≥ 70% | ≥ 90% |  |  |  |  |  |  |
| N#CC1(N(C(=O)c2cc(-c3cnn(-c4c(Cl)cc(C(F)(C(F)(F)F)C(F)(F)F)cc4Cl)c3)cnc2Cl)C(=O)C2CC2)CC1 [Compound 113] | ≥ 70% | ≥ 90% | ≥ 90% | ≥ 70% | ≥ 90% |  |  |  | 100% | 100% | 100% |
| N#CC1(NC(=O)c2cc(-c3cnn(-c4c(Cl)cc(C(F)(C(F)(F)F)C(F)(F)F)cc4Cl)c3)cnc2Cl)CC1 [CK3, reference compound] |  |  |  |  |  | 30% | 60% | 100% |  |  |  |
| O=C(NC1CC1)c1cc(-c2cnn(-c3c(Cl)cc(C(F)(C(F)(F)F)C(F)(F)F)cc3Cl)c2)cnc1Cl [CK1, reference compound] |  |  |  |  |  |  |  |  | 20% | 66.7% | 100% |
| CN(C(=O)c1cc(-c2cnn(-c3c(Cl)cc(C(F)(C(F)(F)F)C(F)(F)F)cc3Cl)c2)cnc1Cl)C1(C#N)CC1 [CK4, reference compound] |  |  |  |  |  | 20% | 56.7% | 90% |  |  |  |
